Laboratory results: the NIST ThermoML archive (doi:10.1016/j.jct.2014.05.001)
Numbers after ± are expanded uncertainties.

Conditions: Ring tensiometer

surface tension liquid-gas (298.15 K): 72 ± 0.9 mN/m | surface tension liquid-gas (303.15 K): 71.1 ± 0.9 mN/m | surface tension liquid-gas (308.15 K): 70.3 ± 0.9 mN/m | surface tension liquid-gas (313.15 K): 69.4 ± 0.9 mN/m
Compound: O [water]
